Reference: patent publication US7183267B2, “β-lactamase inhibitors and methods of use thereof” (priority 2003, dated 2007)
Where “and” joins values, the source holds several entries; their conditions need not be identical. Equal values may be shown once. Read-outs that look alike come from different tables or passages of the source.

Tests used:
AmpC β-lactamase = molecular target: T1, AmpC β-lactamase (Escherichia coli, UniProt P00811); assay type: biochemical; conditions: substrate hydrolysis by AmpC, 25° C., pH 7.0
T1 construct: made in house; host or cells: E. coli BL21 (DE3)
T1 sequence (P00811 20-377): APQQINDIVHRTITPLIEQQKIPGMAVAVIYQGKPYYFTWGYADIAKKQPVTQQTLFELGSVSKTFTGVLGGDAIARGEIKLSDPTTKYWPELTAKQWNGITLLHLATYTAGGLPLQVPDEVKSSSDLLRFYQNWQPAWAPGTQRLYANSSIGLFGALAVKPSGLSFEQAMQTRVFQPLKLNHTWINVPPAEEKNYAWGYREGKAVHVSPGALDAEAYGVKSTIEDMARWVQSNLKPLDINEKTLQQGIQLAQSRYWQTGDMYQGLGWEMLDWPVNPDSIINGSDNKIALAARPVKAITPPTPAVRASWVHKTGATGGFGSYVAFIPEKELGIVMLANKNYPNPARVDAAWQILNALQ
Method: The competitive inhibition of β-lactamase was determined spectrophotometrically using a Varian (Walnut Creek, Calif.) Cary 100 UV-Visible spectrophotometer. β-lactamase activity was followed by measuring the hydrolysis of nitrocefin, [3-(2,4-dinitrostyryl)-(6R, 7R)-7-(2-thienylacetamido)-ceph-3-em-4-carboxylic acid, E-isomer], (Calbiochem, San Diego, Calif.) at 486 nm. Inhibition assays were performed at 25° C. in 50 mM sodium phosphate, 5% DMSO, pH 7.0. […] Penicillin G (Sigma, St. Louis, Mo.) was also used as a substrate to determine KM and kcat.

β-lactamase E104K = β-lactamase E104K (Escherichia coli, UniProt P62593, E102K); test: Isothermal titration calorimetry, binding enthalpy, E104K mutant
Method: (§1) The binding of the compounds of the present invention to β-lactamase was also measured by isothermal titration calorimetry.
(§2) These experiments, in combination with the inhibition assays, indicate that the compounds identified in this disclosure bind to the wild type as well as drug resistant beta lactamases with favorable binding enthalpies. This is a very important characteristic from the point of view of further optimization since it facilitates the achievement of extremely high affinities and low susceptibilities to drug resistant mutations and naturally occurring polymorphisms.
(§3) Isothermal titration calorimetry was performed on a high-precision VP-ITC titration calorimeter (Microcal Inc., Northampton, Mass.). β-Lactamase solutions were titrated with inhibitors in 50 mM sodium phosphate, 2% DMSO, pH 7.0, with β-lactamase concentrations ranging from 15 to 25 μM and inhibitor concentrations ranging from 300 to 1000 μM. The heat evolved from each injection was obtained by integrating the calorimetric signal. Heat of binding was obtained as the difference between the heat of reaction and the heat of inhibitor dilution. Data were analyzed using Origin 7.0 (OriginLab Corporation, Northampton, Mass.).

β-lactamase wt = β-lactamase wt (Escherichia coli, UniProt P62593); test: Isothermal titration calorimetry, binding enthalpy, wild type
Method: as §1, §2, §3

β-lactamase R244S = β-lactamase R244S (Escherichia coli, UniProt P62593, R241S); test: Isothermal titration calorimetry, binding enthalpy, R244S mutant
Method: as §1, §2, §3

TEM-1 β-lactamase [1] = molecular target: T2, TEM-1 β-lactamase (Escherichia coli, UniProt P62593); test: Isothermal titration calorimetry, binding to TEM-1 β-lactamase (Example 17); conditions: ITC
Outline: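 TEM-1 β-lactamase (15–25 μM) titrated with inhibitor (300–1000 μM) in 50 mM sodium phosphate, 2% DMSO, pH 7.0. Integrated injection heats were corrected for inhibitor dilution heat to give binding heat.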

β-lactamase mutant R244S = β-lactamase mutant R244S (Escherichia coli, UniProt P62593, R241S); assay type: biochemical; conditions: number higher than 1 reflects a loss of potency against mutant
Method: (§4) The inhibition of TEM-1 β-lactamase was determined spectrophotometrically. B-lactamase activity was followed by measuring the hydrolysis of nitrocefin, [3-(2,4-dinitrostyryl)-(6R, 7R)-7-(2-thienylacetamido)-ceph-3-em-4-carboxylic acid, E-isomer], (Calbiochem, San Diego, Calif., USA) at 486 nm. Inhibition assays were performed at 25° C. in 50 mM sodium phosphate, 5% DMSO, pH 7.0. […] Inhibitor was added to the enzyme and incubated for ten minutes before the addition of substrate. Inhibition constants (Ki) for the inhibitors are obtained at the desired temperature and solvent conditions by measuring the rate of substrate hydrolysis at increasing amounts of inhibitors.
(§5) Three of the most important mutations are M69I, R244S and E104K.

β-lactamase mutant E104K = β-lactamase mutant E104K (Escherichia coli, UniProt P62593, E102K); assay type: biochemical; conditions: number higher than 1 reflects a loss of potency against mutant
Method: as §4, §5

β-lactamase mutant M69I = β-lactamase mutant M69I (Escherichia coli, UniProt P62593, M67I); assay type: biochemical; conditions: number higher than 1 reflects a loss of potency against mutant
Method: as §4, §5

β-lactamase M69I = β-lactamase M69I (Escherichia coli, UniProt P62593, M67I); test: Isothermal titration calorimetry, binding enthalpy, M69I mutant
Method: as §1, §2, §3

TEM-1 β-lactamase [2] = molecular target: T2, TEM-1 β-lactamase; test: TEM-1 β-lactamase inhibition assay (nitrocefin hydrolysis, 486 nm); assay type: biochemical
Outline: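 TEM-1 activity followed by nitrocefin hydrolysis at 486 nm, 25 °C, 50 mM sodium phosphate pH 7.0, 5% DMSO; inhibitor preincubated with enzyme 10 min before substrate. Ki obtained from rates at increasing inhibitor concentrations fitted to competitive-inhibition equations; penicillin G also used as substrate for KM and kcat.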

| Structure (SMILES) | kcat (AmpC β-lactamase) | Km (AmpC β-lactamase; read-out: KM) | ΔH E104K (β-lactamase E104K) | ΔH wt (β-lactamase wt) | ΔH R244S (β-lactamase R244S) | ΔG (TEM-1 β-lactamase [1]) | ΔH (TEM-1 β-lactamase [1]) | −TΔS (TEM-1 β-lactamase [1]) | Loss of potency: ratio of the inhibitory constant between mutant and wild type (Potencywt/Potencymutant), R244S (β-lactamase mutant R244S) | Loss of potency: ratio of the inhibitory constant between mutant and wild type (Potencywt/Potencymutant), E104K (β-lactamase mutant E104K) | Loss of potency: ratio of the inhibitory constant between mutant and wild type (Potencywt/Potencymutant), M69I (β-lactamase mutant M69I) | ΔH M69I (β-lactamase M69I) | Ki (TEM-1 β-lactamase [2]; Ki from Lineweaver-Burke Analysis, values in parenthesis, Lineweaver-Burke analysis) | Ki (TEM-1 β-lactamase [2]; Ki, 25° C., 50 mM sodium phosphate, 5% DMSO, pH 7.0, enzyme 5 nM, nitrocefin 167 μM) | Ki (TEM-1 β-lactamase [2]; Ki, TEM-1 β-lactamase) | melting point | Km (AmpC β-lactamase) |
| --- | --- | --- | --- | --- | --- | --- | --- | --- | --- | --- | --- | --- | --- | --- | --- | --- | --- |
| CC1(C)S[C@@H]2[C@H](NC(=O)Cc3ccccc3)C(=O)N2[C@H]1C(=O)O [penicillin G, Penicillin G] | 198 ± 4 s⁻¹ | 28 ± 3 µM |  |  |  |  |  |  |  |  |  |  |  |  |  |  |  |
| O=C(Oc1ccccc1[N+](=O)[O-])c1cc(B(O)O)cc([N+](=O)[O-])c1 [Compound (1b), 3-(2-Nitrophenoxycarbonyl)-5-nitrophenylboronic acid] |  |  | -3900 cal/mol | -3800 cal/mol | -9500 cal/mol | -6420 cal/mol | -4011 cal/mol | -2409 cal/mol | 1.2 | 0.92 | 1.0 | -2000 cal/mol | 1.18 µM | 12 ± 3 µM | 12 µM | 128 to 130 °C |  |
| O=C(Cc1cccs1)N[C@@H]1C(=O)N2C(C(=O)O)=C(/C=C/c3ccc([N+](=O)[O-])cc3[N+](=O)[O-])CS[C@H]12 [nitrocefin, 3-(2,4-dinitrostyryl)-(6R, 7R)-7-(2-thienylacetamido)-ceph-3-em-4-carboxylic acid, E-isomer] | 975 s⁻¹ and 976 ± 46 s⁻¹ |  |  |  |  |  |  |  |  |  |  |  |  |  |  |  | 250 µM and 253 µM |
